# ChEMBL document CHEMBL4699554, “Biological Evaluation of Selected Flavonoids as Inhibitors of MNKs Targeting Acute Myeloid Leukemia” (J Nat Prod, 2020)
# Activity calls are given as the source filed them. The calls are words filed in the database; no cut-off is given here.
# Columns and labels:
# [1] = biological target: T1, MAP kinase-interacting serine/threonine-protein kinase 2 (Homo sapiens, UniProt Q9HBH9); assay: Inhibition of N-terminal GST-tagged recombinant human full length MNK2 expressed in baculovirus expression system incubated for 1 hr by Kinase Tracer 236 based LanthaScreen Eu kinase binding assay relative to control
# Target sequence in this assay (Q9HBH9 whole entry): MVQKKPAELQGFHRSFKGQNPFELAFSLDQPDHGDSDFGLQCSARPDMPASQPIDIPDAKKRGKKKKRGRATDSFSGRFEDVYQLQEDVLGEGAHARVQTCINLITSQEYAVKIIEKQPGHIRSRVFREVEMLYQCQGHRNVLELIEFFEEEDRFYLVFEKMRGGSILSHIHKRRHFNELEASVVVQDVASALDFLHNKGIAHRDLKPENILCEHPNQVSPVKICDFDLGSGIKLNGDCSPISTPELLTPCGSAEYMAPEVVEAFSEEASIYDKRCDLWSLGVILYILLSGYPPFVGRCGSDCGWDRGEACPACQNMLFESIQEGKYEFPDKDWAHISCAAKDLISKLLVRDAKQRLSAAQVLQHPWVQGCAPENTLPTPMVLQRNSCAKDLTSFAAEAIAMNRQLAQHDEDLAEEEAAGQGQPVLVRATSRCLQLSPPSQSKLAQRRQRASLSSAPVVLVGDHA
# [2] = biological target: T1, MAP kinase-interacting serine/threonine-protein kinase 2; assay: Inhibition of N-terminal GST-tagged recombinant human full length MNK2 expressed in baculovirus expression system at 10 uM incubated for 1 hr by Kinase Tracer 236 based LanthaScreen Eu kinase binding assay relative to control
# Target sequence in this assay (Q9HBH9 whole entry, looked up): as the sequence (Q9HBH9 whole entry) above
# MOLM-13 [3] = assay: Cytotoxicity against human MOLM-13 cells assessed as reduction in cell viability after 72 hrs by MTT assay; type: functional, cell-based; conditions: MOLM-13, 72 h
# MV4-11 [4] = assay: Cytotoxicity against human MV4-11 cells assessed as reduction in cell viability after 72 hrs by MTT assay; type: functional, cell-based; conditions: MV4-11, 72 h
# MV4-11 [5] = assay: Induction of cell death in human MV4-11 cells assessed as increase in accumulation at sub-G1 phase after 72 hrs by propidium iodide staining based flow cytometric analysis; type: functional; conditions: dose microM 1-30, time 72.0 hrs
# MOLM-13 [6] = assay: Induction of apoptosis in human MOLM-13 cells assessed as increase in cleaved PARP level after 72 hrs by Western blot analysis; type: functional, cell-based; conditions: dose microM 1-30, time 72.0 hrs
# [7] = biological target: T2, MAP kinase-interacting serine/threonine-protein kinase 1/2 (Homo sapiens) (UniProt Q9HBH9+Q9BUB5); assay: Inhibition of MNK1/MNK2 in human MV4-11 cells assessed as reduction in eIF4E phosphorylation reduction in eIF4E phosphorylation at 30 uM after 24 to 48 hrs by Western blot analysis; type: cell-based; conditions: time hrs 24-48
# MV4-11 [8] = assay: Induction of apoptosis in human MV4-11 cells assessed as increase in cleaved caspace-3 level after 72 hrs by Western blot analysis; type: functional, cell-based; conditions: dose microM 1-30, time 72.0 hrs
# [9] = biological target: T3, MAP kinase-interacting serine/threonine-protein kinase 1 (Homo sapiens, UniProt Q9BUB5); assay: Inhibition of GST-tagged recombinant human full length MNK1 expressed in insect cells
# Target sequence in this assay (Q9BUB5 whole entry): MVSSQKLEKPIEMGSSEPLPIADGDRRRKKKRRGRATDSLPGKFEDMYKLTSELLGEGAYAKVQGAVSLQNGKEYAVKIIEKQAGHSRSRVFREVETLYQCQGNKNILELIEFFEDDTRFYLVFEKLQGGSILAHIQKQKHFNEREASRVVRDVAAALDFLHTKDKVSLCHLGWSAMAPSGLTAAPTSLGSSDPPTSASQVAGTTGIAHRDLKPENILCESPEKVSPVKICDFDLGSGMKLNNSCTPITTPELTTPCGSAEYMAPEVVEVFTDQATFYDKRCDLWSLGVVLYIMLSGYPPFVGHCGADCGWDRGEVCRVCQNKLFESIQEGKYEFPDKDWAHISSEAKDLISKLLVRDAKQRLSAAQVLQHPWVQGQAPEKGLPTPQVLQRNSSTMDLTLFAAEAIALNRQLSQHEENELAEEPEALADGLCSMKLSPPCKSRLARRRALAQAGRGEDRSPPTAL
# [10] = biological target: T2, MAP kinase-interacting serine/threonine-protein kinase 1/2 (Homo sapiens); assay: Inhibition of MNK1/MNK2 in human MOLM-13 cells assessed as reduction in eIF4E phosphorylation reduction in eIF4E phosphorylation after 24 to 48 hrs by Western blot analysis; type: cell-based; conditions: dose microM 1-30, time hrs 24-48
# MV4-11 [11] = assay: Induction of cell cycle arrest in human MV4-11 cells assessed as increase in accumulation at sub-G1 phase at 3 to 30 uM after 72 hrs by propidium iodide staining based flow cytometric analysis; type: functional; conditions: dose microM 3-30, time 72.0 hrs
# MV4-11 [12] = assay: Induction of apoptosis in human MV4-11 cells assessed as increase in cleaved PARP level after 72 hrs by Western blot analysis; type: functional, cell-based; conditions: dose microM 1-30, time 72.0 hrs
# [13] = biological target: T3, MAP kinase-interacting serine/threonine-protein kinase 1; assay: Inhibition of GST-tagged recombinant human full length MNK1 expressed in insect cells at 10 uM relative to control
# Target sequence in this assay (Q9BUB5 whole entry, looked up): as the sequence (Q9BUB5 whole entry) above
# MOLM-13 [14] = assay: Induction of cell death in human MOLM-13 cells assessed as increase in accumulation at sub-G1 phase after 72 hrs by propidium iodide staining based flow cytometric analysis; type: functional; conditions: dose microM 1-30, time 72.0 hrs
# MOLM-13 [15] = assay: Induction of apoptosis in human MOLM-13 cells assessed as increase in cleaved caspace-3 level after 72 hrs by Western blot analysis; type: functional, cell-based; conditions: dose microM 1-30, time 72.0 hrs
# [16] = biological target: T2, MAP kinase-interacting serine/threonine-protein kinase 1/2 (Homo sapiens); assay: Inhibition of MNK1/MNK2 in human MV4-11 cells assessed as reduction in eIF4E phosphorylation reduction in eIF4E phosphorylation after 24 to 48 hrs by Western blot analysis; type: cell-based; conditions: dose microM 1-30, time hrs 24-48
# MOLM-13 [17] = assay: Induction of cell cycle arrest in human MOLM-13 cells assessed as increase in accumulation at sub-G1 phase at 3 to 30 uM after 72 hrs by propidium iodide staining based flow cytometric analysis; type: functional; conditions: dose microM 3-30, time 72.0 hrs
# [18] = biological target: T2, MAP kinase-interacting serine/threonine-protein kinase 1/2 (Homo sapiens); assay: Inhibition of MNK1/MNK2 in human MOLM-13 cells assessed as reduction in eIF4E phosphorylation reduction in eIF4E phosphorylation at 30 uM after 24 to 48 hrs by Western blot analysis; type: cell-based; conditions: time hrs 24-48
# [19] = biological target: T2, MAP kinase-interacting serine/threonine-protein kinase 1/2 (Homo sapiens); assay: Inhibition of MNK1/MNK2 in human MOLM-13 cells assessed as reduction in eIF4E phosphorylation reduction in eIF4E phosphorylation at 10 uM after 24 to 48 hrs by Western blot analysis; type: cell-based; conditions: time hrs 24-48
# MOLM-13 [20] = assay: Induction of cell cycle arrest in human MOLM-13 cells assessed as increase in accumulation at sub-G1 phase at 1 to 30 uM after 72 hrs by propidium iodide staining based flow cytometric analysis; type: functional; conditions: dose microM 1-30, time 72.0 hrs
# MV4-11 [21] = assay: Induction of cell cycle arrest in human MV4-11 cells assessed as increase in accumulation at sub-G1 phase at 30 uM after 72 hrs by propidium iodide staining based flow cytometric analysis relative to control; type: functional
# MV4-11 [22] = assay: Induction of cell cycle arrest in human MV4-11 cells assessed as increase in accumulation at sub-G1 phase at 1 to 30 uM after 72 hrs by propidium iodide staining based flow cytometric analysis; type: functional; conditions: dose microM 1-30, time 72.0 hrs
# MOLM-13 [23] = assay: Induction of cell cycle arrest in human MOLM-13 cells assessed as increase in accumulation at sub-G1 phase at 30 uM after 72 hrs by propidium iodide staining based flow cytometric analysis relative to control; type: functional
# [24] = biological target: T2, MAP kinase-interacting serine/threonine-protein kinase 1/2 (Homo sapiens); assay: Inhibition of MNK1/MNK2 in human MV4-11 cells assessed as reduction in eIF4E phosphorylation reduction in eIF4E phosphorylation at 10 uM after 24 to 48 hrs by Western blot analysis; type: cell-based; conditions: time hrs 24-48
smiles,measurement,setting,value
COc1cc(O)c(C(=O)/C=C/c2ccc(C(=O)O)cc2)c(OC)c1,IC50,[1],3.7 µM
same,inhibition,[2],> 70%
O=c1c(O)c(-c2ccncc2)oc2ccc(Cl)cc12,IC50,[1],6.49 µM
same,inhibition,[2],> 70%
COc1ccc(C(=O)/C=C/c2ccc(O)c(Br)c2)cc1,IC50,[1],4.67 µM
same,inhibition,[2],> 70%
COc1cc2c(c(OC)c1CC=C(C)C)C(=O)CC(c1ccc(OC)c(OC)c1C/C=C(\C)CCC=C(C)C)O2 (centres undefined),IC50,[1],8.26 µM
same,inhibition,[2],> 70%
COc1ccc(-c2oc3cc(OC)c(OC)c(O)c3c(=O)c2O)cc1O,IC50,[1],1.7 µM
same,inhibition,[2],> 70%
COc1cc(O)c(C(=O)/C=C/c2ccccc2)c(OC)c1,inhibition,[2],> 50%
COc1ccc(-c2cc(=O)c3c(O)cc(O)cc3o2)cc1,inhibition,[2],> 50%
COc1ccc(-c2cc(=O)c3ccc(O)cc3o2)cc1OC,inhibition,[2],> 50%
O=C(/C=C/c1cccc(O)c1)c1ccccc1O,inhibition,[2],> 50%
O=c1cc(-c2ccccc2)oc2cc(O)ccc12,inhibition,[2],> 50%
O=c1cc(-c2ccc(O)cc2)oc2cc(O)cc(O)c12 [APIGENIN],IC50,[1],0.308 µM
same,inhibition,[2],> 70%
COc1cc(O)c2c(=O)cc(-c3ccc(O)cc3)oc2c1 [GENKWANIN],IC50,[1],0.979 µM
same,IC50,MOLM-13 [3],> 10 µM
same,inhibition,[2],> 70%
same,IC50,MV4-11 [4],> 10 µM
COc1c(O)cc2oc(-c3ccc(O)cc3)cc(=O)c2c1O [HISPIDULIN],Activity,MV4-11 [5],Active
same,Activity,MOLM-13 [6],Dose-dependent effect
same,inhibition,[7],100%
same,IC50,[1],0.252 µM
same,Activity,MV4-11 [8],Dose-dependent effect
same,IC50,MOLM-13 [3],6.4 µM
same,IC50,[9],1.2 µM
same,inhibition,[2],93%
same,inhibition,[10],Dose-dependent effect
same,Activity,MV4-11 [11],Active
same,Activity,MV4-11 [12],Dose-dependent effect
same,IC50,MV4-11 [4],8.2 µM
same,inhibition,[13],> 70%
same,Activity,MOLM-13 [14],Active
same,Activity,MOLM-13 [15],Dose-dependent effect
same,inhibition,[16],Dose-dependent effect
same,Activity,MOLM-13 [17],Active
same,inhibition,[18],100%
O=c1cc(-c2ccc(O)c(O)c2)oc2cc(O)cc(O)c12 [LUTEOLIN],inhibition,[19],100%
same,Activity,MOLM-13 [20],Active
same,Activity,MV4-11 [5],Active
same,Activity,MOLM-13 [6],Dose-dependent effect
same,Activity,MV4-11 [21],>80%
same,IC50,[1],0.579 µM
same,Activity,MV4-11 [22],Active
same,Activity,MV4-11 [8],Dose-dependent effect
same,IC50,MOLM-13 [3],4.5 µM
same,IC50,[9],0.179 µM
same,inhibition,[2],> 70%
same,inhibition,[10],Dose-dependent effect
same,Activity,MOLM-13 [23],>80%
same,Activity,MV4-11 [12],Dose-dependent effect
same,IC50,MV4-11 [4],3.1 µM
same,inhibition,[13],> 70%
same,Activity,MOLM-13 [14],Active
same,Activity,MOLM-13 [15],Dose-dependent effect
same,inhibition,[16],Dose-dependent effect
same,inhibition,[24],100%
